Assay results from PubChem BioAssay AID256 (DTP/NCI, 2004).
Toxic doses and inconclusive results are not listed. Rule for the calls: active = survival T/C of 150% or more; inactive = T/C below 125% in these data.

Test system: CD2F1 mice, L1210 leukemia ip, survival T/C
Experiment: NCI In Vivo Anticancer Drug Screen. Data for tumor model L1210 Leukemia (intraperitoneal) in CD2F1 (CDF1) mice
Settings: endpoint: mean survival time, higher = longer survival
Outline: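 Transplantable tumor in mice; compound-treated vs vehicle-treated groups. Read-out = treated/control ratio of the measured endpoint.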

[1] = dose: 100.0 mg/kg/injection, schedule: Q04DX002 (ip), vehicle: saline with Tween-80
[2] = dose: 200.0 mg/kg/injection, schedule: Q04DX002 (ip), vehicle: saline with Tween-80
[3] = dose: 400.0 mg/kg/injection, schedule: Q04DX002 (ip), vehicle: saline with Tween-80
[4] = dose: 100.0 mg/kg/injection, schedule: Q01DX009 (ip), vehicle: saline with Tween-80
[5] = dose: 200.0 mg/kg/injection, schedule: Q01DX009 (ip), vehicle: saline with Tween-80
[6] = dose: 400.0 mg/kg/injection, schedule: Q01DX009 (ip), vehicle: saline with Tween-80
[7] = dose: 200.0 mg/kg/injection, schedule: Q04DX003 (ip), vehicle: saline
[8] = dose: 100.0 mg/kg/injection, schedule: Q04DX003 (ip), vehicle: saline with Tween-80
[9] = dose: 200.0 mg/kg/injection, schedule: Q04DX003 (ip), vehicle: saline with Tween-80
[10] = dose: 400.0 mg/kg/injection, schedule: Q04DX003 (ip), vehicle: saline with Tween-80

Measured: T/C

CCCCC(=O)OCC[N+](C)(C)C
inactive: [1] 100 % of control | [2] 95 % of control | [3] 91 % of control

CNc1ccn(C2OC(CO)C(O)C2O)c(=O)n1 (stereo not given)
inactive: dose: 100.0 mg/kg/injection, schedule: Q01DX005 (ip), vehicle: distilled water + Tween-80 107 % of control | dose: 200.0 mg/kg/injection, schedule: Q01DX005 (ip), vehicle: distilled water + Tween-80 104 % of control | dose: 400.0 mg/kg/injection, schedule: Q01DX005 (ip), vehicle: distilled water + Tween-80 107 % of control

BrN1CCCCC1
inactive: dose: 100.0 mg/kg/injection, schedule: Q04DX002 (ip), vehicle: saline 103 % of control | dose: 200.0 mg/kg/injection, schedule: Q04DX002 (ip), vehicle: saline 122 % of control | dose: 400.0 mg/kg/injection, schedule: Q04DX002 (ip), vehicle: saline 103 % of control

Nc1nn[nH]n1
inactive: [4] 95 % of control | [5] 90 % of control | [6] 94 % of control

CC(C)(C)OC(=O)NCCCCC(N)C(=O)OC(C)(C)C (stereo not given)
inactive: dose: 100.0 mg/kg/injection, schedule: Q04DX003 (ip), vehicle: saline 96 % of control | [7] 93 % of control

OC(COc1ccccc1)CN1CCCCC1 (stereo not given)
inactive: [4] 100 % of control | [8] 101 % of control | [5] 100 % of control | [9] 98 % of control | [6] 102 % of control | [10] 98 % of control

Nc1ccc(N=Nc2cccnc2)cc1
inactive: dose: 100.0 mg/kg/injection, schedule: Q04DX002 (ip), vehicle: other 103 % of control | dose: 200.0 mg/kg/injection, schedule: Q04DX002 (ip), vehicle: other 88 % of control

O=C(Nc1cc(Cl)c(I)cc1Cl)C(F)(F)F
inactive: dose: 100.0 mg/kg/injection, schedule: Q01DX001 (ip), vehicle: saline 102 % of control | dose: 200.0 mg/kg/injection, schedule: Q01DX001 (ip), vehicle: saline 111 % of control | dose: 400.0 mg/kg/injection, schedule: Q01DX001 (ip), vehicle: saline 90 % of control

C[n+]1ccccc1CCc1cccc[n+]1C
inactive: dose: 50.0 mg/kg/injection, schedule: Q01DX009 (ip), vehicle: saline 100 % of control | dose: 100.0 mg/kg/injection, schedule: Q01DX009 (ip), vehicle: saline 100 % of control | dose: 200.0 mg/kg/injection, schedule: Q01DX009 (ip), vehicle: saline 104 % of control

CCC/C(C)=N/Nc1ccc([N+](=O)[O-])cc1
inactive: [4] 94 % of control | [8] 95 % of control | [5] 100 % of control | [9] 97 % of control | [6] 94 % of control | [10] 93 % of control

CCC(CCC(C)C1CCC2C3CC=C4CC(I)CCC4(C)C3CCC12C)C(C)C (stereo not given)
inactive: dose: 100.0 mg/kg/injection, schedule: Q01DX001 (ip), vehicle: saline with Tween-80 90 % of control | dose: 200.0 mg/kg/injection, schedule: Q01DX001 (ip), vehicle: saline with Tween-80 90 % of control | dose: 400.0 mg/kg/injection, schedule: Q01DX001 (ip), vehicle: saline with Tween-80 94 % of control

CC(=O)OCc1ccc(/C=N/Nc2ccc([N+](=O)[O-])cc2[N+](=O)[O-])cc1Br
inactive: [7] 108 % of control | dose: 400.0 mg/kg/injection, schedule: Q04DX003 (ip), vehicle: saline 100 % of control

CC1(C)CCCC2(C)CC/C(=N\NC(N)=O)C=C12 (stereo not given)
inactive: [4] 93 % of control | [8] 95 % of control | [5] 89 % of control | [9] 96 % of control | [6] 88 % of control | [10] 96 % of control

COc1ccc(NC(=O)Oc2ccc(Cl)c(C)c2)cc1
inactive: [4] 89 % of control | [6] 92 % of control

CNc1ccccc1CO
inactive: dose: 100.0 mg/kg/injection, schedule: Q01DX009 (ip), vehicle: other 107 % of control | dose: 200.0 mg/kg/injection, schedule: Q01DX009 (ip), vehicle: other 97 % of control | dose: 400.0 mg/kg/injection, schedule: Q01DX009 (ip), vehicle: other 103 % of control

CNC(=S)C(=S)NC
inactive: dose: 6.25 mg/kg/injection, schedule: Q01DX009 (ip), vehicle: saline with Tween-80 100 % of control | dose: 12.5 mg/kg/injection, schedule: Q01DX009 (ip), vehicle: saline with Tween-80 97 % of control | dose: 25.0 mg/kg/injection, schedule: Q01DX009 (ip), vehicle: saline with Tween-80 95 % of control | dose: 50.0 mg/kg/injection, schedule: Q04DX003 (ip), vehicle: saline with Tween-80 93 % of control

C/C(=N\NC(N)=S)C1=C(O)C(Cc2ccccc2)NC1=O (stereo not given)
inactive: [1] 100 % of control | [2] 100 % of control | [3] 100 % of control

COC(=O)C(Cc1[nH]c(N=Nc2ccc(Br)cc2)nc1N=Nc1ccc(Br)cc1)NC(C)=O (stereo not given)
inactive: [1] 93 % of control | [2] 96 % of control | [3] 96 % of control
